Results: ChEMBL document CHEMBL3727357, “Compositions and methods for inhibiting g protein signaling” (2010)
Active and inactive are the calls of the source. The calls are words filed in the database; no cut-off is given here.

Tests used:
[1] = molecular target: Mu-type opioid receptor (Homo sapiens) (UniProt P35372); assay: Inhibition of human Gbetagamma-dependent mu opioid receptor-mediated PLC activation expressed in CHO cells assessed as reduction of DAMGO-mediated total inositol phosphate production at 10 uM after 30 mins by scintillation counting analysis in presence of [3H]inositol; format: functional, cell-based
[2] = Reduction of membrane associated GRK2 level in mouse cardiomyocytes; format: ADME, cell-based; details: cardiomyocyte
[3] = organism: Mus musculus; assay: Inhibition of Gbetagamma-GRK2 interaction in mouse cardiomyocytes assessed as increase in contractility in presence of beta adrenergic receptor antagonist propranolol; format: cell-based
[4] = system: Mus musculus; assay: Antinociceptive activity in ICR mouse at 100 nmol, icv after 20 mins by tail flick test relative to control; format: functional, organism-based
[5] = molecular target: Delta-type opioid receptor (Homo sapiens) (UniProt P41143); assay: Inhibition of human Gbetagamma-dependent delta opioid receptor-mediated PLC activation expressed in CHO cells assessed as reduction of DPDPE-mediated total inositol phosphate production at 10 uM after 30 mins by scintillation counting analysis in presence of [3H]inositol; format: functional, cell-based
[6] = molecular target: T1, Guanine nucleotide-binding protein G(I)/G(S)/G(T) subunit beta-1/gamma-2 (Homo sapiens, UniProt P62873+P59768); assay: Inhibition of biotinylated Gbeta1gamma2 (unknown origin) binding to PLCbeta3 at 10 uM incubated for 16 hrs; format: protein-complex assay
[7] = system: HL-60; assay: Binding affinity to Gbetagamma in human HL60 cells assessed as inhibition of fMLP-stimulated Ca2+ release at 10 uM incubated for 5 mins prior to fMLP stimulation by Fura2-AM dye-based assay; format: cell-based
[8] = system: Mus musculus; assay: Toxicity in C57/B16 mouse assessed as overt toxic effect at 250 mg/kg/day administered for 2 weeks; format: organism-based; details: in vivo, 336 h
[9] = organism: Mus musculus; assay: Inhibition of Gbetagamma-mediated GRK2 recruitment in mouse cardiomyocytes assessed as isoproterenol-induced cAMP generation at 10 uM pretreated for 5 mins followed by isoproterenol induction measured after 15 mins; format: functional, cell-based
[10] = molecular target: T1, Guanine nucleotide-binding protein G(I)/G(S)/G(T) subunit beta-1/gamma-2; assay: Inhibition of biotinylated Gbeta1gamma2 (unknown origin) binding to PLCbeta2 at 10 uM incubated for 16 hrs; format: protein-complex assay
[11] = system: CHO; assay: Reduction of U50,488-mediated total inositol phosphate production in CHO cells expressing human mu opioid receptor at 10 uM after 30 mins by scintillation counting analysis in presence of [3H]inositol; format: functional, cell-based; details: Cricetulus griseus
[12] = organism: Mus musculus; assay: Inhibition of Gbetagamma-GRK2 interaction in mouse cardiomyocytes assessed as increase in isoproterenol-induced contractility in presence of beta adrenergic receptor antagonist propranolol; format: cell-based
[13] = molecular target: Delta-type opioid receptor (Homo sapiens) (UniProt P41143); assay: Inhibition of human Gbetagamma-dependent delta opioid receptor-mediated PLC activation expressed in CHO cells assessed as reduction of Deltorphin 2-mediated total inositol phosphate production at 10 uM after 30 mins by scintillation counting analysis in presence of [3H]inositol; format: functional, cell-based
[14] = organism: Mus musculus; assay: Inhibition of Gbetagamma in mouse cardiomyocytes assessed as reduction of agonist-stimulated beta adrenergic receptor-mediated GRK2 recruitment to membrane; format: cell-based
[15] = system: Mus musculus; assay: Potentiation of morphine-induced antinociceptive activity in ICR mouse assessed as morphine ED50 at 100 mg/kg, ip after 20 mins by tail flick test (reference value: 5 mg/kg); format: functional
[16] = system: HL-60; assay: Binding affinity to Gbetagamma in human HL60 cells assessed as inhibition of fMLP-stimulated GRK2 translocation at 10 uM incubated for 5 mins prior to fMLP stimulation by Western blot analysis; format: cell-based
[17] = system: Mus musculus; assay: Inhibition of isoproterenol-mediated decrease in cardiac function in C57/B16 mouse acute model of heart failure at 100 mg/kg, ip qd administered for 7 days by conscious echocardiography; format: functional, organism-based
[18] = system: Mus musculus; assay: Increase in survival of cardiac-specific calsequestrin mouse with dilated cardiomyopathy at 100 mg/kg, ip qd; format: functional, organism-based; details: Heart
[19] = organism: Mus musculus; assay: Inhibition of Gbetagamma-GRK2 interaction in mouse cardiomyocytes assessed as increase in contractility; format: cell-based
[20] = system: Mus musculus; assay: Improvement of cardiac dysfunction in cardiac-specific calsequestrin mouse with dilated cardiomyopathy at 100 mg/kg, ip qd; format: functional, organism-based; details: Heart
[21] = system: Neutrophil; assay: Antiinflammatory activity in primary human neutrophils assessed as inhibition of IL8-stimulated chemotaxis at 10 uM after 1 hr by Boyden chamber method; format: functional, cell-based
[22] = molecular target: Mu-type opioid receptor (Homo sapiens) (UniProt P35372); assay: Inhibition of human Gbetagamma-dependent mu opioid receptor-mediated PLC activation expressed in CHO cells assessed as reduction of morphine-mediated total inositol phosphate production at 10 uM after 30 mins by scintillation counting analysis in presence of [3H]inositol; format: functional, cell-based
[23] = system: CHO; assay: Inhibition of human Gbetagamma-dependent kappa opioid receptor-mediated PLC activation expressed in CHO cells assessed as reduction of U50,488-mediated total inositol phosphate production at 10 uM after 30 mins by scintillation counting analysis in presence of [3H]inositol; format: cell-based
[24] = system: Mus musculus; assay: Improvement of cardiac dysfunction in cardiac-specific calsequestrin mouse with dilated cardiomyopathy at 100 mg/kg, ip qd in presence of beta adrenergic receptor blocker metoprolol; format: functional, organism-based; details: Heart
[25] = organism: Mus musculus; assay: Inhibition of Gbetagamma-mediated GRK2 recruitment in mouse cardiomyocytes assessed as cAMP generation at 10 uM treated for 5 mins; format: functional, cell-based
[26] = system: Mus musculus; assay: Toxicity in C57/B16 mouse assessed as effect on cardiac morphology at 100 mg/kg, ip qd administered for 7 days by post-mortem test; format: organism-based; details: in vivo, 168 h
[27] = system: HL-60; assay: Antiinflammatory activity in differentiated human HL60 cells assessed as inhibition of fMLP-stimulated chemotaxis by transwell assay; format: functional, cell-based
[28] = organism: Mus musculus; assay: Inhibition of Gbetagamma-GRK2 interaction in mouse cardiomyocytes assessed as increase in isoproterenol-induced contractility; format: cell-based
[29] = system: HL-60; assay: Binding affinity to Gbetagamma in differentiated human HL60 cells assessed as inhibition of fMLP-stimulated Rac1 activation at 10 uM preincubated for 10 mins followed by fMLP challenge for 90 secs by Western blot analysis; format: cell-based
[30] = system: Neutrophil; assay: Antiinflammatory activity in primary human neutrophils assessed as inhibition of GM-CSF-stimulated chemotaxis at 1 uM after 1 hr by Boyden chamber method; format: functional, cell-based
[31] = system: Mus musculus; assay: Downregulation of GRK2 expression in […] mouse acute model of heart failure at 100 mg/kg, ip qd administered for 7 days by immunoblot analysis; format: functional, organism-based
[32] = system: Mus musculus; assay: Toxicity in C57/B16 mouse assessed as effect on cardiac function at 100 mg/kg, ip qd administered for 7 days by conscious echocardiography; format: organism-based; details: in vivo, 168 h
[33] = system: HL-60; assay: Antiinflammatory activity in differentiated human HL60 cells assessed as inhibition of fMLP-stimulated cell migration at 10 uM after 1 hr by Boyden chamber method; format: functional, cell-based
[34] = system: Mus musculus; assay: Inhibition of isoproterenol-mediated decrease in cardiac morphology in C57/B16 mouse acute model of heart failure at 100 mg/kg, ip qd administered for 7 days by post-mortem test; format: functional, organism-based
[35] = system: CHO; assay: Effect on total inositol phosphate production in CHO cells expressing human mu opioid receptor at 10 uM after 30 mins by scintillation counting analysis in presence of [3H]inositol; format: ADME, cell-based, Cricetulus griseus; details: chinese hamster, 0.5 h
[36] = system: Neutrophil; assay: Antiinflammatory activity in primary human neutrophils assessed as inhibition of fMLP-stimulated chemotaxis at 10 uM after 1 hr by Boyden chamber method; format: functional, cell-based
[37] = system: CHO; assay: Reduction of DPDPE-mediated total inositol phosphate production in CHO cells expressing human mu opioid receptor at 10 uM after 30 mins by scintillation counting analysis in presence of [3H]inositol; format: functional, cell-based; details: Cricetulus griseus
[38] = system: Mus musculus; assay: Inhibition of isoproterenol-mediated interstitial cardiac fibrosis in C57/B16 mouse acute model of heart failure at 100 mg/kg, ip qd administered for 7 days by post-mortem test; format: functional, organism-based
[39] = system: Mus musculus; assay: Increase in survival of cardiac-specific calsequestrin mouse with dilated cardiomyopathy at 100 mg/kg, ip qd in presence of beta adrenergic receptor blocker metoprolol; format: functional, organism-based; details: Heart
[40] = Effect on differentiated human HL60 cell motility at 10 uM after 1 hr by Boyden chamber method; format: ADME, cell-based; details: hl-60, 1 h
[41] = system: HL-60; assay: Effect on fMLP-stimulated ERK1/2 phosphorylation in human HL60 cells at 10 uM incubated for 5 mins prior to fMLP stimulation by Western blot analysis; format: functional, cell-based
[42] = system: Mus musculus; assay: Potentiation of morphine-induced antinociceptive activity in PLCbeta3-deficient ICR mouse at 100 nmol, icv after 20 mins by tail flick test; format: functional, organism-based
[43] = system: HL-60; assay: Binding affinity to Gbetagamma in human HL60 cells assessed as inhibition of fMLP-stimulated GFP-PHAkt translocation to plasma membrane at 10 uM incubated for 5 mins prior to fMLP stimulation by Western blot analysis; format: cell-based
[44] = system: HL-60; assay: Binding affinity to Gbetagamma in differentiated human HL60 cells assessed as inhibition of fMLP-stimulated superoxide production at 10 uM preincubated for 10 mins followed by nitro blue tetrazolium addition for 5 mins and fMLP addition for 30 mins by NADPH oxidase assay; format: cell-based
[45] = system: HEK293; assay: Effect on carbachol-dependent Ca2+ release in HEK293 cells expressing M3 muscarinic receptor at 10 uM; format: functional, cell-based; details: Homo sapiens

Sequence of Mu-type opioid receptor (Homo sapiens) (P35372 whole entry): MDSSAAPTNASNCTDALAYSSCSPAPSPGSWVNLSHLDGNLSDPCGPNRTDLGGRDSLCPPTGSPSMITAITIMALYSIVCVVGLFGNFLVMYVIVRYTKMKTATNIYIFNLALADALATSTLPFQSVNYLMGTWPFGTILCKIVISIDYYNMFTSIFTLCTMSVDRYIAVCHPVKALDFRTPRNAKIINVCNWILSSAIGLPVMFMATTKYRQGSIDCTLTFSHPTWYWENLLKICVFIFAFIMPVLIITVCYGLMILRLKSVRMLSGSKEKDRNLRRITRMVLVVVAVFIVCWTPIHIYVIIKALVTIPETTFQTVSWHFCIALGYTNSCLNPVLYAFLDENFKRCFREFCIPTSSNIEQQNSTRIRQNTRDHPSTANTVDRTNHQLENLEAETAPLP
Sequence of Delta-type opioid receptor (Homo sapiens) (P41143 whole entry): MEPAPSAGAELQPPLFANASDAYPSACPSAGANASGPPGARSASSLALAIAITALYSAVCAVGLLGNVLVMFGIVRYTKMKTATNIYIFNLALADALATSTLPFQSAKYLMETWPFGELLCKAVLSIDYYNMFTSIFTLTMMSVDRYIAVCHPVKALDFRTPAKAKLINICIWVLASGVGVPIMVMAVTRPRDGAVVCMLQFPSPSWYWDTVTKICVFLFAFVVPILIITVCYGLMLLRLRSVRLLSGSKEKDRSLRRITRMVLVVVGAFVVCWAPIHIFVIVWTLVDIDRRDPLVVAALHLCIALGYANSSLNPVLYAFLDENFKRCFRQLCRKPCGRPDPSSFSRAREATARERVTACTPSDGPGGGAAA
T1 sequence (P59768 2-71 partner limits assumed): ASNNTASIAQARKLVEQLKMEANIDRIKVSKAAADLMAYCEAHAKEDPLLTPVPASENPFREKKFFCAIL
T1 sequence (P62873 2-340 limits assumed): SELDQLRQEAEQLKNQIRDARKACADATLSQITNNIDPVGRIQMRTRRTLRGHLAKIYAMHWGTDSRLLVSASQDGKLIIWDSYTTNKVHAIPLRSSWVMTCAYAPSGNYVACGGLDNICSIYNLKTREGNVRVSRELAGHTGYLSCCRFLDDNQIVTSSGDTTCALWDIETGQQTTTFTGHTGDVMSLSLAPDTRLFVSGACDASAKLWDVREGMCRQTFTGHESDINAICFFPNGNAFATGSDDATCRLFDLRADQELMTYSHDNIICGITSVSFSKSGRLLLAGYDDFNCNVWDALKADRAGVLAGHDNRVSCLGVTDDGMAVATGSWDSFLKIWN

For `O=C(O)C1CCCCC1c1c2ccc(=O)c(O)c-2oc2c(O)c(O)ccc12` (configuration not stated), the inhibition [1] was “Active”, the Activity [2] was “Non-toxic” and the inhibition [3] was “inactive”. For the same compound, the Activity [4] was “inactive”, the inhibition [5] was “inactive” and the inhibition [6] was “Active”. For the same compound, the inhibition [7] was “Active”, the Activity [8] was “Non-toxic” and the inhibition [9] was “Active”. The inhibition [10] was “Active”, the Activity [11] was “inactive” and the inhibition [12] was “inactive”. The inhibition [13] was “inactive”, the inhibition [14] was “Active” and the ED50 [15] was 1.3 mg/kg. For the same compound, the inhibition [16] was “Active”, the inhibition [17] was “Active” and the Activity [18] was “Active”. For the same compound, the inhibition [19] was “Active”, the Activity [20] was “Active” and the inhibition [21] was “Active”. For the same compound, the inhibition [22] was “Active”, the inhibition [23] was “inactive” and the Activity [24] was “Active”. For the same compound, the inhibition [25] was “Active”, the Activity [26] was “Non-toxic” and the inhibition [27] was “inactive”. For the same compound, the inhibition [28] was “Active”, the inhibition [29] was “Active” and the inhibition [30] was “inactive”. The Activity [31] was “Active”, the Activity [32] was “Non-toxic” and the inhibition [33] was “Active”. For the same compound, the inhibition [34] was “Active”, the Activity [35] was “Non-toxic” and the inhibition [36] was “Active”. For the same compound, the Activity [37] was “inactive”, the inhibition [38] was “Active” and the Activity [39] was “Active”. The Activity [40] was “Non-toxic”, the Activity [41] was “inactive” and the Activity [42] was “inactive”. The inhibition [43] was “Active”, the inhibition [44] was “Active” and the Activity [45] was “inactive”.
With `COC(=O)/C=C/C(=O)N[C@@H]1CC[C@@]2(O)[C@H]3Cc4ccc(O)c5c4[C@@]2(CCN3CC2CC2)[C@H]1O5` the inhibition [1] was “Active” and the inhibition [22] was “Active”.
